Laboratory results: patent US6133258A, “Inhibitor of kainic acid neurotoxicity and pyridothiazine derivative” (Yamanouchi Pharmaceutical Co., Ltd., priority 1995, dated 2000)

Legend:
[1] = test system: NMDA excitotoxicity or experimental animal models for epilepsy, cerebral ischemia; details: literature; cited from earlier work
DBA/2 mice = test: Audiogenic seizure inhibitory action (anticonvulsant effect) in DBA/2 mice; type: in vivo; details: Mus musculus, ip, 0.75 h; i.p. 45 minutes before sound stimulation (12 kHz, 120 dB); ten male 21 to 28-day-old mice; read-out: Anticonvulsant effect for audiogenic seizure in DBA/2 mice, minimum effective dose
Method: 2) Measurement of audiogenic seizure inhibitory action in DBA/2 mice
The test compound was suspended in a 0.5% methylcellulose solution and the resulting suspension was intraperitoneally administered 45 minutes before the stimulation by the sound. The drug efficacy was evaluated by presence or absence of the appearance of seizure and the minimum effective dose was determined.

[2] = test system: primary rat hippocampal cultures; test: Inhibition of kainic acid neurotoxicity (LDH release) in primary rat hippocampal cultures; type: cell-based; details: Hippocampal neuron; 300 μM kainic acid, 24 hours, primary rat hippocampal neurons, lactate dehydrogenase release
Method: 1) Inhibition of kainic acid neurotoxicity
The effect of the compound of the present invention for inhibiting kainic acid neurotoxicity was studied using primary rat hippocampal cultures.
(1) Incubation conditions
The hippocampus was dissected from a brain of the 18 to 20-day-old fetal rat and was subjected to enzyme treatment with papain and DNase I to disperse the cells. The cells so obtained were suspended in MEM containing 10% serum and plated on poly-L-lysine coated 48-well plates at a density of 4×10^5 cells/cm^2. Twenty four hours later, the medium was replaced by a serum-free medium. The medium was changed twice a week. The cells which were cultured for at least 6 days were provided for the following test.
(2) Inhibition against kainic acid neurotoxicity
Neurotoxicity was assessed by an activity of lactate dehydrogenase released into the culture medium from destroyed cells. As a control, neurons which were exposed to a serum-free medium containing 300 μM kainic acid for 24 hours were used. Each compound, together with 300 μM kainic acid, was allowed to act on the neuron for 24 hours and inhibitory action of each compound against kainic acid neurotoxicity was evaluated.

AMPA receptor = details: literature; cited from earlier work
[3] = test system: experimental animal model for cerebral ischemia; details: literature; cited from earlier work
AMPA-induced cell death = details: literature; cited from earlier work

NC(CCCP(=O)(O)O)C(=O)O (centres unmarked) [2-amino-5-phosphonovaleric acid]
protective effect against NMDA excitotoxicity or in experimental animal models for epilepsy, cerebral ischemia, etc. [1]: protective against NMDA excitotoxicity or in experimental animal models for epilepsy, cerebral ischemia, etc.

NC(CCCCCP(=O)(O)O)C(=O)O (centres unmarked) [2-amino-7-phosphonoheptanoic acid]
protective effect against NMDA excitotoxicity or in experimental animal models for epilepsy, cerebral ischemia, etc. [1]: protective against NMDA excitotoxicity or in experimental animal models for epilepsy, cerebral ischemia, etc.

CN(c1ccc(Br)cc1)c1nc(=O)c2cccnc2s1 [16-2), 2-[N-(4-Bromophenyl)-N-methylamino]-4H-pyrido[3,2-e]-1,3-thiazin-4-one]
minimal effective dose (DBA/2 mice): 30 mg/kg
IC50 [2]: 1 µM

CN(c1ccc(Cl)cc1)c1nc(=O)c2cccnc2s1 [Example 64, 2-[N-(4-Chlorophenyl)-N-methylamino]-4H pyrido[3,2-e]-1,3-thiazin-4-one]
minimal effective dose (DBA/2 mice): 10 mg/kg
IC50 [2]: 1.4 µM

Cc1cccc(N(C)c2nc(=O)c3cccnc3s2)c1 [Example 72, 2-[N-Methyl-N-(3-methylphenyl)amino]-4H-pyrido[3,2-e]-1,3-thiazin-4-one]
minimal effective dose (DBA/2 mice): 30 mg/kg
IC50 [2]: 1.9 µM

CC1=NN=C(c2ccc(N)cc2)c2cc3c(cc2C1)OCO3 [GYKI52466]
effect on AMPA receptor desensitization (AMPA receptor): counteracts the inhibition of desensitization by cyclothiazide
effect in experimental animal model for cerebral ischemia [3]: effective in an experimental animal model for cerebral ischemia

NC1CCN(O)C1=O (centres unmarked) [HA-966]
effect in experimental animal model for cerebral ischemia [3]: effective in an experimental animal model for cerebral ischemia

NS(=O)(=O)c1cccc2c1c([N+](=O)[O-])cc1[nH]c(=O)c(=O)[nH]c12 [NBQX]
effect in experimental animal model for cerebral ischemia [3]: effective in the experimental animal model for cerebral ischemia

NS(=O)(=O)c1cc2c(cc1Cl)NC(C1CC3C=CC1C3)NS2(=O)=O (centres unmarked) [cyclothiazide]
effect on AMPA-induced cell death (AMPA-induced cell death): accelerate AMPA-induced cell death
effect on AMPA receptor desensitization (AMPA receptor): desensitization inhibitor
